The source of these data is paper PMC4434909, “In vitro properties of designed antimicrobial peptides that exhibit potent antipneumococcal activity and produces synergism in combination with penicillin” (Scientific Reports, 2015).

Several values for one entry are separate records, joined by “and”; a condition that tells them apart may be missing. Equal values may be shown once. Read-outs that look alike come from different tables or passages of the source. Where no end group is shown, it is not given here.

For orientation: HC50 means the concentration giving 50% haemolysis. A low value points to more damage to red cells.

Data set [1] relates to human erythrocytes. The data set can be described thus: Hemolytic activity. To be noted: for Hmax: percentage hemolysis at the highest concentration tested (all peptides 250 μg/ml; PEN 4 μg/ml). Format: cell-based. As to the method: Hemolytic assay was performed as described. Freshly drawn human erythrocytes were rinsed three times with PBS and resuspended in PBS to 4% (v/v). One hundred microliters of the suspension was added to 96-well microtiter plate containing equal volume of peptides to give final concentrations of peptides encompassing the range of 1.96–250 μg/ml. PBS and 0.1% (v/v) Triton-X 100 were used as 0% and 100% hemolytic control respectively. Plates were incubated at 37°C for 1 hr. Subsequently, the plate was centrifuged and the supernatant was transferred to a new plate. The release of hemoglobin in the supernatant was monitored at absorbance of 450 nm using Glomax Multidetection system (Promega, USA). Results were pooled from three independent experiments and expressed as mean ± SD. HC10 and HC50 were defined as the peptide concentrations causing 10% and 50% hemolysis on human erythrocytes, respectively. Hmax was the percentage hemolysis observed at the maximum concentration as defined throughout this study (all peptides 250 μg/ml, PEN 4 μg/ml).

The test system of data set [2] is S. pneumoniae. Format: cell-based, Streptococcus pneumoniae. The settings on record: for Overall EP: proportion of the 60 pneumococcal isolates inhibited within the MIC range. An excerpt: (§1) All bacterial strains were obtained from Department of Medical Microbiology, University of Malaya. Clinical isolates were previously obtained from University of Malaya Medical Centre and maintained in the laboratory. Sheep blood agar was used for pneumococcal cultivation purpose. Nutrient agar was used for cultivating E. coli ATCC 25922, S. aureus ATCC 25923, and P. aeruginosa ATCC 15442, Acinetobacter baumanii ATCC 15308, and one clinical isolate for each MRSA, E. cloacae, Citrobacter spp., and K. pneumoniae. For antimicrobial testing, Mueller-Hinton agar (MHA) and cationically-adjusted MHB (CAMHB) were prepared according to the Clinical and Laboratory Standard Institute guidelines. MHA for S. pneumoniae was supplemented with 5% (v/v) defibrinated sheep blood and 5% laked horse blood for CAMHB. All bacterial cultures were stored in multiple vials in brain heart infusion broth supplemented with 10% (v/v) glycerol at −80°C to avoid repeated freeze-thawed cycles on the cells. All freeze-stocked strains were passaged twice prior to experimentation.
(§2) Procedures were performed to determine the MIC of peptides according to the CLSI guidelines[21] against 60 pneumococcal isolates which consisted of 20 isolates each for PRSP, PISP, and PSSP. Strains were grown for 18–24 hrs at 37°C under 5% CO2. Direct suspension of the colonies were made in CAMHB and adjusted to OD625 0.08–0.1 which corresponds to 1 ~ 2 × 10^8 CFU/ml followed by serial ten-fold dilutions to give 1 × 10^6 CFU/ml. Fifty microliters of bacterial suspension was then aliquoted to 96-well round bottom microtiter plates containing equal volume of serially diluted peptides to give final concentrations of peptides encompassing the range of 1.96–250 μg/ml. […] The plates were incubated for 18–24 hrs at 37°C under 5% CO2. MIC was read as the concentration of peptide producing complete inhibition on the visible growth of the test organism. Results were pooled from three independent experiments. MIC range was defined as the range of concentrations where the peptides produce detectable antimicrobial activity. Effective percentage (EP) was the proportion of pneumococcal isolates inhibited within the MIC range. Since the isolates tested were obtained prior to 2008 where major revision in antibiotic susceptibility breakpoints were introduced, thus the pneumococci were defined according to the PEN susceptibility breakpoint (prior 2008) which corresponds to the PEN (oral penicillin V) breakpoint of the revised criteria.

Data set [3] concerns penicillin-susceptible S. pneumoniae (PSSP). Format: cell-based, Streptococcus pneumoniae. The settings on record: for MIC, PSSP: MIC range over 20 PSSP isolates, CLSI broth microdilution, CAMHB with 5% laked horse blood, 18–24 hrs 37°C 5% CO2, peptides 1.96–250 μg/ml, three independent experiments; for EP %, PSSP: effective percentage: proportion of isolates inhibited within the MIC range.
From the text: as §1, §2

For data set [4], the system named is penicillin-intermediate S. pneumoniae (PISP). Format: cell-based, Streptococcus pneumoniae. The settings on record: for MIC, PISP: MIC range over 20 PISP isolates, CLSI broth microdilution, CAMHB with 5% laked horse blood, 18–24 hrs 37°C 5% CO2, peptides 1.96–250 μg/ml, three independent experiments; for EP %, PISP: effective percentage: proportion of isolates inhibited within the MIC range.
From the text: as §1, §2
A general note: In broth dilution the organism is exposed to a series of concentrations in liquid medium.

In data set [5] the test system is PRSP. Format: cell-based, Streptococcus pneumoniae. As to the method: (§3) This assay was performed to evaluate the killing kinetics of peptides. One PRSP, PISP, and PSSP isolate were each grown and prepared to 5 × 10^6 CFU/ml. Each isolate in CAMHB was challenged with peptides at two times the respective MIC values. At the indicated time intervals (0, 30, 60, 120, 150, 180, 210, and 240 min; “0” indicate pretreatment), 10 μl of suspension was removed and immediately serially diluted in cold phosphate-buffered saline to arrest further reaction before spread-plated on MHA to obtain viable colony counts. The percentage cell recovered was calculated by dividing the surviving CFU of the treated cells over the surviving CFU of the untreated control cells at the respective time points. Results were pooled from three independent experiments and expressed as mean ± standard deviation (SD).

Data set [6] concerns PSSP. Format: cell-based, Streptococcus pneumoniae. As to the method:
as §3

Data set [7] relates to PRSP, PISP, and PSSP. Format: cell-based, Streptococcus pneumoniae. To be noted: for CFU recovered (viability), all three groups of pneumococci: 5 × 10^6 CFU/ml in CAMHB, plate count, relative to untreated control. As to the method:
as §3

Data set [8] has as its system PISP. Format: cell-based, Streptococcus pneumoniae. As to the method:
as §3

Setting [9] is: concentration causing 10% hemolysis, 4% (v/v) erythrocytes in PBS, 37°C 1 hr, absorbance 450 nm, mean ± SD of three independent experiments.
The mark [10] stands for this setting: concentration causing 50% hemolysis, 4% (v/v) erythrocytes in PBS, 37°C 1 hr, absorbance 450 nm, three independent experiments.
[11] abbreviates: mean ± SD of three independent experiments.
The mark [12] stands for this setting: average of PRSP, PISP and PSSP, 30 min post treatment, 2× MIC.
[13] abbreviates: 30 min post treatment, 2× MIC, 5 × 10^6 CFU/ml in CAMHB, plate count, relative to untreated control.

In turn, GLFDKWAWWRWRR-NH2 [DM1] showed an HC10 in data set [1] (setting [9]) of more than 250 µg/mL. The substance also showed an HC50 in data set [1] (setting [10]) of more than 250 µg/mL. In addition, the Hmax in data set [1] (setting [11]) was < 1.0% and 0.5 ± 0.1%. For the same substance, in data set [2], the “Overall MIC” value lay within 31.3 to 250 µg/mL and the “Overall EP” value is recorded as 100.0%. Further, in data set [3], the “MIC, PSSP” value is 62.5 to 250 µg/mL and the “EP %, PSSP” value was “(100.0) %”. In data set [4], the “MIC, PISP” value lay in the range of 31.3 to 125 µg/mL and the “EP %, PISP” value is given as “(100.0) %”. Also, the “difference in killing kinetics over PEN, PRSP” value (“difference … PRSP” for short) in data set [5] (30 min post treatment, 2× MIC) worked out at 52.9%. In addition, in data set [6] (30 min post treatment, 2× MIC), the “difference in killing kinetics over PEN, PSSP” value (“difference … PSSP” below) is reported as 38.4%. Also, the “difference in killing kinetics over PEN, average” value (shortened to “difference … average”) in data set [7] (setting [12]) is listed as 48.5%. Also, the “difference in killing kinetics over PEN, PISP” value (“difference … PISP” below) in data set [8] (30 min post treatment, 2× MIC) was found to be 54.2%.
As for GLFDIWKKLRWRR-NH2 [DM5], the HC10 in data set [1] was more than 250 µg/mL. In addition, the 50% haemolytic concentration (HC50) in data set [1] (red cells of human, 1 h) is more than 250 µg/mL. In addition, in data set [2], the “Overall MIC” value lay within 15.63 to 125 µg/mL and the “Overall EP” value came to 100.0%. In data set [3], the “MIC, PSSP” value lay in the range of 15.63 to 125 µg/mL and the “EP %, PSSP” value is recorded as “(100.0) %”. For the same substance, in data set [4], the “MIC, PISP” value lay in the range of 15.63 to 125 µg/mL and the “EP %, PISP” value was “(100.0) %”. In addition, the “difference … PRSP” value in data set [5] (2) was 38.1%. Also, the “difference … PSSP” value in data set [6] (2) amounted to 36.5%. In addition, in data set [7] (2), the “difference … average” value is listed as 44.4%. In addition, the “difference … PISP” value in data set [8] (2) came out at 58.5%.
In data set [1], GLFDIWAWWRWRR-NH2 [DM2] showed an HC10 of 114.3 µg/mL. In data set [1] (red cells of human, 1 h), this substance returned a concentration for 50% haemolysis (HC50) of more than 250 µg/mL. Further, in data set [2], the “Overall MIC” value lay in the range of 7.81 to 250 µg/mL and the “Overall EP” value is on record as 100.0%. Further, in data set [3], the “MIC, PSSP” value lay within 15.63 to 250 µg/mL and the “EP %, PSSP” value is given as “(100.0) %”. In data set [4], the “MIC, PISP” value is 7.81 to 250 µg/mL and the “EP %, PISP” value is listed as “(100.0) %”. Besides, the “difference … PRSP” value in data set [5] (2) is reported as 64.1%. The “CFU recovered, PRSP” value in data set [5] (setting [13]) was “completely killed”. Also, in data set [6] (2), the “difference … PSSP” value was found to be 54.4%. In addition, in data set [7] (2), the “difference … average” value was 61.3%. For the same substance, the “CFU recovered (viability), all three groups of pneumococci” value in data set [7] (30 min post treatment, 2× MIC) was less than 6.0%. Besides, the “difference … PISP” value in data set [8] (2) was found to be 65.4%. Further, the “CFU recovered, PISP” value in data set [8] (setting [13]) amounted to 12.4%.
Take GLFDIWKKWRWRR-NH2 [DM4]: the HC10 in data set [1] (setting [9]) is more than 250 µg/mL. Also, in data set [1] (setting [10]), the HC50 is more than 250 µg/mL. In data set [1] (setting [11]), the Hmax was < 1.0% and 0.6 ± 0.1%. In data set [2], the “Overall MIC” value lay within 15.63 to 125 µg/mL and the “Overall EP” value stood at 100.0%. Besides, in data set [3], the “MIC, PSSP” value lay within 15.63 to 125 µg/mL and the “EP %, PSSP” value is “(100.0) %”. In data set [4], the “MIC, PISP” value lay within 15.63 to 125 µg/mL and the “EP %, PISP” value is listed as “(100.0) %”. Also, the “difference … PRSP” value in data set [5] (30 min post treatment, 2× MIC) amounted to 39.0%. Moreover, the “difference … PSSP” value in data set [6] (30 min post treatment, 2× MIC) came out at 30.5%. Besides, the “difference … average” value in data set [7] (setting [12]) is 42.4%. Further, in data set [8] (30 min post treatment, 2× MIC), the “difference … PISP” value is listed as 57.8%.
In turn, GLFDIWKWWRWRR-NH2 [DM3] showed an HC10 in data set [1] of 52.7 µg/mL. Also, in data set [1] (red cells of human, 1 h), the HC50 was more than 250 µg/mL and the “hemolysis at the effective MIC level against S. pneumoniae” value is recorded as not above 15%. In data set [2], the “Overall MIC” value lay within 7.81 to 62.5 µg/mL and the “Overall EP” value is recorded as 100.0%. In addition, in data set [3], the “MIC, PSSP” value fell in the range of 7.81 to 62.5 µg/mL and the “EP %, PSSP” value is recorded as “(100.0) %”. Also, in data set [4], the “MIC, PISP” value fell in the range of 7.81 to 62.5 µg/mL and the “EP %, PISP” value was “(100.0) %”. The “difference … PRSP” value in data set [5] (2) is on record as 60.0%. Besides, in data set [6] (2), the “difference … PSSP” value was determined as 57.7%. Further, in data set [7] (2), the “difference … average” value is listed as 64.6%. Moreover, the “CFU recovered (viability), all three groups of pneumococci” value in data set [7] (30 min post treatment, 2× MIC) is listed as less than 6.0%. In addition, the “difference … PISP” value in data set [8] (2) was 76.0%.
